Measured values: patent US20120195929A1, “COMPOUNDS THAT MODULATE AUTOIMMUNITY AND METHODS OF USING THE SAME” (priority 2009, published 2012)
Entries after “also recorded” stand apart in the source; their conditions may differ.

Tests used:
[1] = tested on: I-A^g7 congenic splenocytes; assay: IL-10 ELISPOT, splenocytes from C57BL/6 mice congenic for I-A^g7; assay type: cell-based; details: C57BL/6 congenic for I-A^g7
Source text: (§1) Balb/c mice have I-A^d as their class II antigen presenting molecule. I-A^d is structurally similar to I-A^g7 of the NOD, with both strains having identical I-A alpha chains (17 amino acid differences in the I-A beta chains). C57BL/6 mice have I-A^b as their class II antigen presenting molecule. Both strains lack the basic pocket 9 in the peptide binding groove.

BDC 12-4.1 splenocytes = assay: ELISPOT and supernatant cytokines, transgenic BDC 12-4.1 Rag−/− mouse splenocytes; assay type: cell-based
Protocol: Number of spots for each well is shown in the upper left hand corner.
The in vitro response of a monoclonal T cell population targeted to the B:9-23 peptide (rather than hybridomas) was evaluated by enzyme-linked immunospot (ELISPOT). […] Stimulation without the addition of B:9-23 peptide was unexpected and could be due to in vivo insulin peptide-MHC complexes present in the spleen. As shown in panel d of FIG. 3, both IL-10 (FIG. 3c) and IFN-γ (FIG. 3d) were quantified in the supernatant of stimulated splenocytes.

I-A^g7 = assay: Direct binding of biotinylated insulin B:9-23 peptide to purified I-A^g7; parameters: species or system mouse; details: 500 nM; increasing biotinylated B:9-23; 2 h and 24 h
C57BL/6 splenocytes = assay: IL-10 ELISPOT, C57BL/6 splenocytes (I-A^b); assay type: cell-based, C57BL/6 mice; details: C57BL/6, I-A^b
Source text: as §1

NOD mice = assay: Diabetes prevention study in NOD mice; details: 80 mg/kg/day i.p. 5 days per week from 4 to 21 weeks of age; p<0.001 vs PBS controls
Balb/c splenocytes = assay: IL-10 ELISPOT, Balb/c splenocytes (I-A^d); assay type: cell-based, Balb/c mice
Source text: as §1

T cell hybridoma 8-1.1α1 = T cell hybridoma 8-1.1α1 response to B:9-23 peptide presented by I-A^g7; assay type: cell-based, mouse
Source text: B:9-23 peptide and small molecule binding to panel a) T cell hybridoma 8-1.1α1, panel b) hybridoma BDC 12-4.1, and panel c) hybridoma BDC 12-4.4. […] Dotted line is at the stimulation index of the B:9-23 peptide. TT=tetanus toxin (negative control peptide).
TT=tetanus toxin (negative control peptide). B:19(A)=substitution of the native cysteine for alanine at position 19 in B:9-23. […] Results are given as a stimulation index (SI) from triplicate cultures+s.e.m. The data are representative of at least three independent experiments. […] The figure is representative of three independent experiments.
The top 40 scoring compounds (shown in Table 1) were screened for their ability to alter anti-B:9-23 T cell responses to three different T cell hybridomas, all with the dominant conserved Vα5D-4 TCR element but different CDR3α, Jα, and TCRβ chains. […] The same assays evaluating hybridoma response were performed using 40 random compounds from the NCI/DTP repository.

NOD splenocytes = assay: IL-10 ELISPOT, in vitro culture of NOD splenocytes; details: stimulated with glyphosine and B:9-23 peptide
NOD mice splenocytes = assay: Ex vivo ELISPOT of splenocytes from NOD mice treated in vivo; details: 80 mg/kg/day intraperitoneal for 5 days, 10 week old female NOD mice; vs PBS
BDC 2.5 T cell hybridoma = BDC 2.5 T cell hybridoma response to chromogranin peptide mimotope presented by I-A^g7; assay type: cell-based, mouse; details: chromogranin peptide mimotope presented by I-A^g7 (FIG. 2d)

O=C(O)CN(CP(=O)(O)O)CP(=O)(O)O [Glyphosine, N,N-bis(phosphonomethyl)glycine]
IL-10 ELISPOT response to compound plus B:9-23 peptide [1]: responded | IFN-γ positive cells (ELISPOT) (BDC 12-4.1 splenocytes; in vitro, 500 nM): much smaller increase in IFN-γ positive cells | IL-10 positive cells (ELISPOT) (BDC 12-4.1 splenocytes; in vitro, 500 nM, with and without B:9-23 peptide): dramatically enhances IL-10 positive cells | IFN-γ levels in supernatant (BDC 12-4.1 splenocytes; with B:9-23 peptide, compared to peptide alone): not increased; also recorded: decreases IFN-γ levels | B:9-23 peptide binding to empty I-A^g7 (I-A^g7): directly enhance B:9-23 peptide binding | IL-10 ELISPOT response to compound plus B:9-23 peptide (C57BL/6 splenocytes): failed to respond | development of diabetes (NOD mice): Prevention of diabetes occurred as long as therapy was administered | IL-10 ELISPOT response to compound plus B:9-23 peptide (Balb/c splenocytes): failed to respond | TCR stimulation with other modified B:9-23 insulin peptides (T cell hybridoma 8-1.1α1; FIG. 2c): enhanced TCR stimulation | EC50 (T cell hybridoma 8-1.1α1; Mus musculus, T-cell, with B:9-23 peptide (FIG. 2b), read-out: EC50 concentration, enhancement of TCR stimulation): 0.0706 µM | maximal stimulatory effect, fold greater than peptide alone (T cell hybridoma 8-1.1α1; at 500 nM): approximately 2.5 fold | concentration of maximal stimulatory effect (T cell hybridoma 8-1.1α1; with B:9-23 peptide): 500 nM | lowest concentration at which an effect was seen (T cell hybridoma 8-1.1α1; with B:9-23 peptide (FIG. 2b)): 10 nM | TCR stimulation, dependence on peptide (T cell hybridoma 8-1.1α1; with vs without B:9-23 peptide (FIG. 2b)): modulated TCR stimulation only when peptide is present | IL-10 producing cells (ELISPOT) (NOD splenocytes): three- to four-fold increase | ex vivo IFN-γ ELISPOT (NOD mice splenocytes): no change in IFN-γ | ex vivo IL-10 ELISPOT (NOD mice splenocytes): upregulation of IL-10 | peptide stimulation of BDC 2.5 hybridoma (BDC 2.5 T cell hybridoma): did not enhance peptide stimulation
